Measurements: patent US8809232B2, “Herbicidal compositions comprising 4-amino-3-chloro-5-fluoro-6-(4-chloro-2-fluoro-3-methoxyphenyl) pyridine-2-carboxylic acid or a derivative thereof and halosulfuron, pyrazosulfuron and esprocarb” (Dow Agrosciences LLC, priority 2012, dated 2014)
“And” between values parts separate entries of the source, which are not always exact repeats. Equal entries are not always repeated.

Columns and labels:
[1] = test system: ECHOR; experiment: In-water applied herbicidal mixtures, greenhouse, transplanted paddy rice weeds; type: in vivo, Echinochloa oryzoides (Ard.) Fritsch
Procedure: (§1) Weed seeds or nutlets of the desired test plant species were planted in puddled soil (mud) prepared by mixing a shredded, non-sterilized mineral soil (50.5 percent silt, 25.5 percent clay, and 24 percent sand, with a pH of about 7.6 and an organic matter content of about 2.9 percent) and water at a 1:1 volumetric ratio. The prepared mud was dispensed in 365 mL aliquots into 16-ounce (oz.) non-perforated plastic pots with a surface area of 86.59 square centimeters (cm^2) leaving a headspace of 3 centimeters (cm) in each pot Mud was allowed to dry overnight prior to planting or transplanting. Rice seeds were planted in Sun Gro MetroMix® 306 planting mixture, which typically has a pH of 6.0 to 6.8 and an organic matter content of about 30 percent, in plastic plug trays. Seedlings at the second or third leaf stage of growth were transplanted into 840 mL of mud contained in 32-oz. non-perforated plastic pots with a surface area of 86.59 cm^2 4 days prior to herbicide application. The paddy was created by filling the headspace of the pots with 2.5 to 3 cm of water. When required to ensure good germination and healthy plants, a fungicide treatment and/or other chemical or physical treatment was applied. The plants were grown for 4-22 days in a greenhouse with an approximate 14 hr photoperiod which was maintained at about 29′C during the day and 26° C. during the night. Nutrients were added as Osmocote® (19:6:12, N:P:K^+ minor nutrients) at 2 g per 16-oz. pot and 4 g per 32-oz. pot. Water was added on a regular basis to maintain the paddy flood, and supplemental lighting was provided with overhead metal halide 1000-Watt lamps as necessary. The plants were employed for testing when they reached the first through fourth true leaf stage.
(§2) Treatments consisted of the acid or esters of 4-amino-3-chloro-5-fluoro-6-(4-chloro-2-fluoro-3-methoxy-phenyl)pyridine-2-carboxylic acid (compound A) each formulated as an SC (suspension concentrate) and various herbicidal components alone and in combination. Forms of compound A were applied on an acid equivalent basis.
(§3) Other herbicidal components were applied on an active ingredient basis and included acetolactate synthase (ALS)-inhibiting herbicides formulated as Permit® 75 WDG, pyrazosulfuron-ethyl formulated as Agreen® WG or Sirius® G, and VLCFA inhibiting herbicide esprocarb (technical grade material).
(§4) Treatment requirements for each compound or herbicidal component were calculated based upon the rates being tested, the concentration of active ingredient or acid equivalent in the formulation, an application volume of 2 mL per component per pot, and an application area of 86.59 cm^2 per pot.
(§5) For formulated compounds, a measured amount was placed in an individual 100 or 200 mL glass vial and was dissolved in a volume of 1.25% (v/v) Agri-Dex® crop oil concentrate to obtain application solutions.
(§6) For technical grade compounds, a weighed amount was placed in an individual 100 to 200 mL glass vial and was dissolved in a volume of acetone to obtain concentrated stock solutions. […] The concentrated stock solutions obtained were diluted with an equivalent volume of an aqueous mixture containing 2.5% (v/v) crop oil concentrate so that the final application solutions contained 1.25% (v/v) crop oil concentrate.
(§7) Applications were made by injecting with a pipetter appropriate amounts of the application solutions, individually and sequentially, into the aqueous layer of the paddy. Control plants were treated in the same manner with the solvent blank. Applications were made so that all treated plant material received the same concentrations of acetone and crop oil concentrate.
(§8) The treated plants and control plants were placed in a greenhouse as described above and water was added as needed to maintain a paddy flood. […]

[2] = test system: LEFCH; experiment: as above; type: in vivo, Leptochloa chinensis (L.) Nees
Procedure: as §1, with “Water was added on a regular basis to maintain the paddy flood, and supplemental lighting was provided with overhead metal halide 1000-Watt lamps as necessary. The plants were employed for testing when they reached the first through fourth true leaf stage.” left out
as §4
For formulated compounds, a measured amount was placed in an individual 100 or 200 mL glass vial and was dissolved in a volume of 1.25% (v/v) Agri-Dex® crop oil concentrate to obtain application solutions. […]

[3] = test system: BRAPP; experiment: Post-emergence foliar-applied herbicidal mixtures, greenhouse, direct seeded rice weeds; type: in vivo
Text: (§9) Seeds or nutlets of the desired test plant species were planted in a soil matrix prepared by mixing a loam or sandy loam soil (e.g., 28.6 percent silt, 18.8 percent clay, and 52.6 percent sand, with a pH of about 5.8 and an organic matter content of about 1.8 percent) and calcareous grit in an 80 to 20 ratio. The soil matrix was contained in plastic pots with a volume of 1 quart and a surface area of 83.6 square centimeters (cm^2). When required to ensure good germination and healthy plants, a fungicide treatment and/or other chemical or physical treatment was applied. The plants were grown for 8-22 days in a greenhouse with an approximate 14 hr photoperiod which was maintained at about 29° C. during the day and 26° C. during the night. Nutrients (Peters Excel® 15-5-15 5-Ca 2-Mg and iron chelate) were applied in the irrigation solution as needed and water was added on a regular basis. Supplemental lighting was provided with overhead metal halide 1000-Watt lamps as necessary. The plants were employed for testing when they reached the first through fourth true leaf stage.
(§10) Treatments consisted of the acid or esters of 4-amino-3-chloro-5-fluoro-6-(4-chloro-2-fluoro-3-methoxy-phenyl)pyridine-2-carboxylic acid (Compound A), each formulated as an SC (suspension concentrate), and various herbicidal components alone and in combination. Forms of compound A were applied on an acid equivalent basis.
(§11) Other herbicidal components were applied on an active ingredient basis and included the acetolactate synthase (ALS)-inhibiting herbicides halosulfuron-methyl formulated as Permit® 75 WDG, pyrazosulfuron-ethyl formulated as Agreen® WG or Sirius® G, and the VLCFA inhibiting herbicide esprocarb (technical grade material).
(§12) Treatment requirements were calculated based upon the rates being tested, the concentration of active ingredient or acid equivalent in the formulation, and a 12 mL application volume at a rate of 187 L/ha.
(§13) For treatments comprised of formulated compounds, measured amounts of compounds were placed individually in 25 mL glass vials and diluted in a volume of 1.25% (v/v) Agri-Dex® crop oil concentrated to obtain 12× stock solutions. […] Application solutions were prepared by adding an appropriate amount of each stock solution (e.g., 1 mL) and diluted to the appropriate final concentrations with the addition of 10 mL of an aqueous mixture of 1.25% (v/v) crop oil concentrate so that the final spray solutions contained 1.25+/−0.05% (v/v) crop oil concentrate.
(§14) For treatments comprised of technical compounds, weighed amounts can be placed individually in 25 mL glass vials and dissolved in a volume of 97:3 v/v acetone/DMSO to obtain 12× stock solutions. […] Application solutions can be prepared by adding an appropriate amount of each stock solution (e.g., 1 mL) and diluted to the appropriate final concentrations with the addition of 10 mL of an aqueous mixture of 1.5% (v/v) crop oil concentrate so that the final spray solutions contain 1.25% (v/v) crop oil concentrate. When technical materials are used, the concentrated stock solutions can be added to the spray solutions so that the final acetone and DMSO concentrations of the application solutions are 16.2% and 0.5%, respectively.
(§15) For treatments comprised of formulated and technical compounds, weighed amounts of the technical materials were placed individually in 25 mL glass vials and dissolved in a volume of 97:3 v/v acetone/DMSO to obtain 12× stock solutions, and measured amounts of the formulated compounds were placed individually in 25 mL glass vials and diluted in a volume of 1.5% (v/v) crop oil concentrate or water to obtain 12× stock solutions. […] Application solutions were prepared by adding an appropriate amount of each stock solution (e.g., 1 mL) and diluted to the appropriate final concentrations with the addition of an appropriate amount of an aqueous mixture of 1.5% (v/v) crop oil concentrate so that the final spray solutions contained 1.25% (v/v) crop oil concentrate. […]

[4] = test system: SCPMA; experiment: In-water applied herbicidal mixtures, greenhouse, transplanted paddy rice weeds; type: in vivo
Procedure: as §1, §2, §3, §4, §5, §6, §7, §8

[5] = test system: DIGSA; experiment: Post-emergence foliar-applied herbicidal mixtures, greenhouse, direct seeded rice weeds; type: in vivo, Digitaria sanguinalis (L.) Scop.
Text: as §9, §10, §11, §12, §13, §14, §15

[6] = test system: CYPIR; experiment: as above; type: in vivo, Cyperus iria L.
Text: as §9, §10, §11, §12
(§16) For treatments comprised of formulated compounds, measured amounts of compounds were placed individually in 25 mL glass vials and diluted in a volume of 1.25% (v/v) Agri-Dex® crop oil concentrated to obtain 12× stock solutions. […]
(§17) For treatments comprised of formulated and technical compounds, weighed amounts of the technical materials were placed individually in 25 mL glass vials and dissolved in a volume of 97:3 v/v acetone/DMSO to obtain 12× stock solutions, and measured amounts of the formulated compounds were placed individually in 25 mL glass vials and diluted in a volume of 1.5% (v/v) crop oil concentrate or water to obtain 12× stock solutions. […]

[7] = test system: LEFCH; experiment: as above; type: in vivo, Leptochloa chinensis (L.) Nees
Text: as §9, §10, §11, §12, §13, §14, §15

[8] = test system: FIMMI; experiment: In-water applied herbicidal mixtures, greenhouse, transplanted paddy rice weeds; type: in vivo, Fimbristylis miliacea (L.) Vahl; conditions: 4.38 g ae/ha
Procedure: as §1, §2, §3, §4, §5, §6
Applications were made by injecting with a pipetter appropriate amounts of the application solutions, individually and sequentially, into the aqueous layer of the paddy. […]

[9] = test system: CYPRO; experiment: as above; type: in vivo, Cyperus rotundus L.
Procedure: as §1, §2, §3, §4, §5, §6, §7, §8

[10] = test system: SCPJU; experiment: Post-emergence foliar-applied herbicidal mixtures, greenhouse, direct seeded rice weeds; type: in vivo, Schoenoplectus juncoides (Roxb.) Palla; conditions: 8.75 g ae/ha
Text: as §9, with “stage. […]” for “stage.”
as §12, §16, §17

CCOC(=O)c1cnn(C)c1S(=O)(=O)NC(=O)Nc1nc(OC)cc(OC)n1 [Pyrazosulfuron-ethyl, ethyl 5-[[[[(4,6-dimethoxy-2-pyrimidinyl)amino]carbonyl]amino]sulfonyl]-1-methyl-1H-pyrazole-4-carboxylate, reference compound] was tested, and the “Visual Weed Control (%) - 22 DAA ECHOR Obs” value ([1]; 17.5 g ai/ha (Sirius G)) was 0%, the “Visual Weed Control (%) - 22 DAA ECHOR Obs” value ([1]; 35 g ai/ha (Sirius G)) was 0% and the “Visual Weed Control (%) - 20 DAA ECHOR Obs” value ([1]; 70 g ai/ha (Sirius G)) was 70%. The “Visual Weed Control (%) - 22 DAA LEFCH Obs” value ([2]; 17.5 g ai/ha (Sirius G)) was 0%, the “Visual Weed Control (%) - 22 DAA LEFCH Obs” value ([2]; 35 g ai/ha (Sirius G)) was 0% and the “Visual Weed Control (%) - 21 DAA BRAPP Obs” value ([3]; 15 g ai/ha (Agreen WG)) was 0%. The “Visual Weed Control (%) - 21 DAA BRAPP Obs” value ([3]; 30 g ai/ha (Agreen WG)) was 0%, the “Visual Weed Control (%) - 21 DAA BRAPP Obs” value ([3]; 60 g ai/ha (Agreen WG)) was 10% and the “Visual Weed Control (%) - 22 DAA SCPMA Obs” value ([4]; 17.5 g ai/ha (Sirius G)) was 80%. For the same molecule, the “Visual Weed Control (%) - 22 DAA SCPMA Obs” value ([4]; 35 g ai/ha (Sirius G)) was 70%, the “Visual Weed Control (%) - 20 DAA DIGSA Obs” value ([5]; 120 g ai/ha (Agreen WG)) was 23% and the “Visual Weed Control (%) - 21 DAA DIGSA Obs” value ([5]; 120 g ai/ha (Agreen WG)) was 23%.
In the case of COc1c(Cl)ccc(-c2nc(C(=O)OCc3ccccc3)c(Cl)c(N)c2F)c1F [Compound A Benzyl Ester], the “Visual Weed Control (%) - 21 DAA ECHOR Obs” value ([1]; 4.38 g ae/ha) is reported as 0%, the “Visual Weed Control (%) - 21 DAA ECHOR Obs” value ([1]; 8.75 g ae/ha) is reported as 10% and the “Visual Weed Control (%) - 20 DAA ECHOR Obs” value ([1]; 35 g ae/ha) is reported as 73%. For the same molecule, the “Visual Weed Control (%) - 22 DAA CYPIR Obs” value ([6]; 4.38 g ae/ha) was 25%, the “Visual Weed Control (%) - 22 DAA CYPIR Obs” value ([6]; 8.75 g ae/ha) was 50% and the “Visual Weed Control (%) - 20 DAA LEFCH Obs” value ([7]; 4.38 g ae/ha) was 0%. The “Visual Weed Control (%) - 20 DAA LEFCH Obs” value ([7]; 8.75 g ae/ha) was 20%, the “Visual Weed Control (%) - 20 DAA LEFCH Obs” value ([7]; 17.5 g ae/ha) was 40% and the “Visual Weed Control (%) - 21 DAA FIMMI Obs” value [8] was 20%. For the same molecule, the “Visual Weed Control (%) - 22 DAA LEFCH Obs” value ([2]; 4.38 g ae/ha) was 0%, the “Visual Weed Control (%) - 21 DAA CYPRO Obs” value ([9]; 4.38 g ae/ha) was 20% and 30% and the “Visual Weed Control (%) - 21 DAA CYPRO Obs” value ([9]; 8.75 g ae/ha) was 65% and 60%. The “Visual Weed Control (%) - 20 DAA BRAPP Obs” value ([3]; 4.38 g ae/ha) was 40%, the “Visual Weed Control (%) - 21 DAA BRAPP Obs” value ([3]; 4.38 g ae/ha) was 50% and the “Visual Weed Control (%) - 20 DAA BRAPP Obs” value ([3]; 8.75 g ae/ha) was 70%. The “Visual Weed Control (%) - 22 DAA SCPMA Obs” value ([4]; 4.38 g ae/ha) was 0%, the “Visual Weed Control (%) - 22 DAA SCPMA Obs” value ([4]; 8.75 g ae/ha) was 0% and the “Visual Weed Control (%) - 22 DAA SCPMA Obs” value ([4]; 17.5 g ae/ha) was 0%. For the same molecule, the “Visual Weed Control (%) - 20 DAA SCPMA Obs” value ([4]; 70 g ae/ha) was 0%, the “Visual Weed Control (%) - 21 DAA DIGSA Obs” value ([5]; 17.5 g ae/ha) was 23% and the “Visual Weed Control (%) - 21 DAA DIGSA Obs” value ([5]; 35 g ae/ha) was 38%. For the same molecule, the “Visual Weed Control (%) - 22 DAA SCPJU Obs” value [10] was 80%.
